{
  "source": "patent US7282592B2",
  "about": "“Resorcinol derivatives” (Warner-Lambert Company, priority 2000, dated 2007)",
  "target": "T1, human tyrosinase (Homo sapiens, UniProt P14679)",
  "T1 construct": "endogenous in cells; host or cells: SKMEL 188 human melanoma cell line (lysate)",
  "T1 sequence (P14679 19-529)": "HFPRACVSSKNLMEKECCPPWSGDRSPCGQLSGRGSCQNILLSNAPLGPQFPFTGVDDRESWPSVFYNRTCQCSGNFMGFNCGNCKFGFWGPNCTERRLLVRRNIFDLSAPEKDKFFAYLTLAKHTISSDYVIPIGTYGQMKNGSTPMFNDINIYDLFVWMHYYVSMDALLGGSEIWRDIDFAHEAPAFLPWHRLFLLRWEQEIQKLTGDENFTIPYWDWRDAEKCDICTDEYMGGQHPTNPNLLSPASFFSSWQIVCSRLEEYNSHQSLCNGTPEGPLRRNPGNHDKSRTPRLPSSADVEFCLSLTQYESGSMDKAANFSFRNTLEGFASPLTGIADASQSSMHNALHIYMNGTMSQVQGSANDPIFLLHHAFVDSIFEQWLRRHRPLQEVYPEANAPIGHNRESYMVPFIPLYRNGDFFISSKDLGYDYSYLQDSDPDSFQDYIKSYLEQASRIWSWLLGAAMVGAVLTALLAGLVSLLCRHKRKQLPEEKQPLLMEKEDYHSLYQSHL",
  "test": "Tyrosinase (DOPA Oxidase) Assay Using Cell Lysate",
  "assay_type": "biochemical",
  "details": "SKMEL 188 human melanoma cell lysates, L-DOPA 100 μg/ml, incubated 8 hrs, read at 405 nm",
  "method": "1. Tyrosinase (DOPA Oxidase) Assay Using Cell Lysate\nHuman melanoma cell line, SKMEL 188 (licensed from Memorial Sloan-Kettering), is used in the cell lysate assay and the screen. In the assay, compounds and L-dihydroxyphenylalanine (L-DOPA) (100 μg/ml) are incubated with the cell lysates containing human tyrosinase for 8 hrs before the plates are read at 405 nm.",
  "data": [
    {"smiles": "Cc1ccc(S(=O)(=O)N[C@H]2CC[C@H](c3ccc(O)cc3O)CC2)cc1", "note": "[Example 14, N-[trans-4-(2,4-Dihydroxyphenyl)cyclohexyl]-4-methylbenzenesulfonamide]", "values": [
      {"measurement": "IC50", "result": "~4", "unit": "µM"}
    ]}
  ]
}
